Laboratory results reported in the supplement of paper PMC11061612.

How the values were obtained:
[1] = system: HuO-3N1 (Osteosarcoma); assay: Bliss excess, mean over the matrix (fraction); higher = more synergy
How it was run: (§1)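 Cell lines in DMEM/F12 or RPMI with 10% FBS were plated in 1536-well plates, held 24 hours at 37°C, 5% CO2, then given two-drug dose matrices for 72 hours (DMSO typically 0.2%). Viability was read by CellTiter-Glo 2.0 luminescence and scaled as inhibition from 0 (vehicle wells) to 1 (blank wells). Combination Emax is the second-highest inhibition in the matrix; Bliss excess is observed combination effect minus expected EA + EB − EA·EB, EA and EB being single-agent effects.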

[2] = system: NKM-1 (Acute Myeloid Leukemia); assay: as above
How it was run: as §1

[3] = system: COLO-684 (Endometrial Carcinoma); assay: combination Emax (second highest fraction inhibited in the dose matrix, 72 h); higher = more inhibition; extreme values may be limits of the assay
How it was run: as §1

[4] = system: OVTOKO (Ovarian Carcinoma); assay: as above
How it was run: as §1

[5] = system: OCI-AML5 (Acute Myeloid Leukemia); assay: as above
How it was run: as §1

[6] = system: LOUCY (T-Lymphoblastic Leukemia); assay: as above
How it was run: as §1

[7] = system: Caov-3 (Ovarian Carcinoma); assay: as above
How it was run: as §1

[8] = system: NCI-H1623 (Lung Adenocarcinoma); assay: as above
How it was run: as §1

[9] = system: EB-3 (Burkitt's Lymphoma); assay: as above
How it was run: as §1

[10] = system: NKM-1 (Acute Myeloid Leukemia); assay: as above
How it was run: as §1

[11] = system: NCI-H1563 (Lung Adenocarcinoma); assay: as above
How it was run: as §1

[12] = system: BALL-1 (B-Lymphoblastic Leukemia); assay: as above
How it was run: as §1

[13] = system: HTC-C3 (Thyroid Gland Carcinoma); assay: as above
How it was run: as §1

[14] = system: RPMI-8866 (Chronic Myelogenous Leukemia); assay: as above
How it was run: as §1

[15] = system: FLO-1 (Esophageal Adenocarcinoma); assay: as above
How it was run: as §1

[16] = system: RL95-2 (Endometrial Carcinoma); assay: as above
How it was run: as §1

[17] = system: 786-0 (Kidney Carcinoma); assay: as above
How it was run: as §1

[18] = system: SNU-175 (Colorectal Carcinoma); assay: as above
How it was run: as §1

[19] = system: CHL-1 (Melanoma); assay: as above
How it was run: as §1

[20] = system: NCI-H1755 (Lung Adenocarcinoma); assay: as above
How it was run: as §1
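Throughout, for Bliss excess, mean over the matrix: after 72 h of two-drug dosing.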

SMILES	Bliss excess [1]	Bliss excess [2]	combination Emax [3]	combination Emax [4]	combination Emax [5]	combination Emax [6]	combination Emax [7]	combination Emax [8]	combination Emax [9]	combination Emax [10]	combination Emax [11]	combination Emax [12]	combination Emax [13]	combination Emax [14]	combination Emax [15]	combination Emax [16]	combination Emax [17]	combination Emax [18]	combination Emax [19]	combination Emax [20]
CN(C)CCCOc1ccc(-c2ccc3ncc4c(c3c2)n(C2CCOCC2)c(=O)n4C)cn1 [AZD0156] + C=CCn1c(=O)c2cnc(Nc3ccc(N4CCN(C)CC4)cc3)nc2n1-c1cccc(C(C)(C)O)n1 [AZD1775] (first compound max 1 µM, partner max 1 µM)	-0.0505	-0.0605	0.688	0.542	0.95	1	0.65	0.311	0.736	0.853	0.367	0.977	0.351	0.965	0.805	0.429	0.536	0.405	0.623	0.749
CN(C)CCCOc1ccc(-c2ccc3ncc4c(c3c2)n(C2CCOCC2)c(=O)n4C)cn1 [AZD0156] + CCN(CCO)CCCOc1ccc2c(Nc3cc(CC(=O)Nc4cccc(F)c4)[nH]n3)ncnc2c1 [AZD2811] (first compound max 1 µM, 7x7, partner max 1 µM)	-0.0225	-0.031	0.201	0.113	0.963	0.929	0.809	0.0312	0.425	0.473	0.311	0.634	0.0862	0.61	0.267	0.557	0.118	0.604	0.194	0.475
CN(C)CCCOc1ccc(-c2ccc3ncc4c(c3c2)n(C2CCOCC2)c(=O)n4C)cn1 [AZD0156] + C[C@@H]1COCCN1C2=NC(=NC(=C2)C3(CC3)[S@](=N)(=O)C)C4=C5C=CNC5=NC=C4 [AZD6738] (first compound max 1 µM, 7x7, partner max 10 µM)	-0.0046	-0.11	0.812	0.471	0.917	1	0.663	0.675	0.763	0.814	0.385	0.986	0.823	0.967	0.691	0.551	0.641	0.49	0.798	0.816
C=CCn1c(=O)c2cnc(Nc3ccc(N4CCN(C)CC4)cc3)nc2n1-c1cccc(C(C)(C)O)n1 [AZD1775] + C[C@@H]1COCCN1C2=NC(=NC(=C2)C3(CC3)[S@](=N)(=O)C)C4=C5C=CNC5=NC=C4 [AZD6738] (first compound max 1 µM, partner max 10 µM)	0.0162	0.0023	0.851	0.56	0.981	1	0.762	0.74	0.855	0.983	0.446	0.988	0.882	0.989	0.924	0.914	0.888	0.702	0.84	0.899
C=CCn1c(=O)c2cnc(Nc3ccc(N4CCN(C)CC4)cc3)nc2n1-c1cccc(C(C)(C)O)n1 [AZD1775] + O=C(c1cc(Cc2n[nH]c(=O)c3ccccc23)ccc1F)N1CCN(C(=O)C2CC2)CC1 [Olaparib] (first compound max 1 µM, partner max 10 µM)	-0.0835	-0.0375	0.625	0.496	0.953	1	0.716	0.605	0.73	0.945	0.215	0.985	0.365	0.977	0.878	0.486	0.543	0.447	0.528	0.832
CCN(CCO)CCCOc1ccc2c(Nc3cc(CC(=O)Nc4cccc(F)c4)[nH]n3)ncnc2c1 [AZD2811] + C=CCn1c(=O)c2cnc(Nc3ccc(N4CCN(C)CC4)cc3)nc2n1-c1cccc(C(C)(C)O)n1 [AZD1775] (first compound max 1 µM, partner max 1 µM)	-0.0504	0.0269	0.649	0.419	0.978	1	0.846	0.297	0.62	0.879	0.245	0.986	0.3	1	0.769	0.662	0.546	0.637	0.658	0.76
CN(CCO)CC[C@H](CSc1ccccc1)Nc1ccc(S(=O)(=O)NC(=O)c2ccc(N3CCC([C@@H](O)c4ccccc4-c4ccc(Cl)cc4)CC3)cc2)cc1S(=O)(=O)C(F)(F)F [AZD4320] + C[C@@H](Nc1cc(F)cc(F)c1)c1cc(C(=O)N(C)C)cc2c(=O)cc(N3CCOCC3)oc12 [AZD8186] (first compound max 1 µM, 7x7, partner max 3 µM)	0.0557	0.0224	0.396		1	1	0.911	0.865	0.332	1	0.565	1	0.407	0.864	0.486	0.253	0.415	0.908	0.408	0.45
Cc1c2c(nn1C)CSCc1cc(n(C)n1)CSc1cc(c3ccccc3c1)OCCCc1c(C(=O)O)n(C)c3c-2c(Cl)ccc13 [AZD5991] + CN(C)CCCOc1ccc(-c2ccc3ncc4c(c3c2)n(C2CCOCC2)c(=O)n4C)cn1 [AZD0156] (first compound max 1 µM, 7x7, partner max 1 µM)	-0.0067	-0.152	0.332	0.319	1	0.638	0.39	0.891	0.371	0.967	0.668	0.606	0.179	0.668	0.36	0.977	0.251	0.458		0.361
Cc1c2c(nn1C)CSCc1cc(n(C)n1)CSc1cc(c3ccccc3c1)OCCCc1c(C(=O)O)n(C)c3c-2c(Cl)ccc13 [AZD5991] + Cn1cnc2c(F)c(Nc3ccc(Br)cc3Cl)c(C(=O)NOCCO)cc21 [Selumetinib] (first compound max 1 µM, 7x7, partner max 3 µM)	-0.0008	-0.0014	0.261		1	0.595	0.501	0.898	0.138	0.989	0.551	0.271	0.598	0.502	0.386	1	0.251	0.714	0.279	0.338
CCc1c2c(nc3ccc(O)cc13)-c1cc3c(c(=O)n1C2)COC(=O)[C@]3(O)CC [SN-38] + O=C(c1cc(Cc2n[nH]c(=O)c3ccccc23)ccc1F)N1CCN(C(=O)C2CC2)CC1 [Olaparib] (first compound max 0.3 µM, 7x7, partner max 10 µM)	0.075	0.0274	0.514			0.764	0.984		0.682	0.987		1	0.686	0.994	0.479		0.931	0.471	0.508	0.616
Cn1cnc2c(F)c(Nc3ccc(Br)cc3Cl)c(C(=O)NOCCO)cc21 [Selumetinib] + CC(C)n1c(=O)n(C)c2cnc3cc(F)c(-c4ccc(OCCCN5CCCCC5)nc4)cc3c21 [AZD1390] (first compound max 10 µM, 7x7, partner max 0.3 µM)	-0.0618	-0.107	0.125	0.185	0.9	0.35		0.276	0.215	0.504	0.161	0.24	0.591	0.193	0.424	0.372	0.159	0.27	0.0273	0.235
Cn1cnc2c(F)c(Nc3ccc(Br)cc3Cl)c(C(=O)NOCCO)cc21 [Selumetinib] + CCN(CCO)CCCOc1ccc2c(Nc3cc(CC(=O)Nc4cccc(F)c4)[nH]n3)ncnc2c1 [AZD2811] (first compound max 10 µM, 7x7, partner max 1 µM)	-0.106	-0.0376	0.14	0.227	1	0.909		0.331	0.219	0.758	0.232	0.477	0.654	0.34	0.475	0.87	0.208	0.956	0.257	0.541
Cn1cnc2c(F)c(Nc3ccc(Br)cc3Cl)c(C(=O)NOCCO)cc21 [Selumetinib] + C[C@@H]1COCCN1C2=NC(=NC(=C2)C3(CC3)[S@](=N)(=O)C)C4=C5C=CNC5=NC=C4 [AZD6738] (first compound max 10 µM, 7x7, partner max 10 µM)	-0.0994	-0.0748	0.698	0.404	1	0.966		0.771	0.589	0.796	0.313	1	0.75	0.943	0.635	0.772	0.606	0.718	0.772	0.738
